{"source": "patent US6537803B1", "about": "“Amino acid transporters and uses” (Oregon Health Sciences University, priority 1993, dated 2003)", "molecules": {"B1": {"name": "human ASCT1 neutral amino acid transporter (Homo sapiens) (protein)", "chain": "MEKSNETNGYLDSAQAGPAAGPGAPGTAAGRARRCAGFLRRQALVLLTVSGVLAGAGLGAALRGLSLSRTQVTYLAFPGEMLLRMLRMIILPLVVCSLVSGAASLDASCLGRLGGIAVAYFGLTTLSASALAVALAFIIKPGSGAQTLQSSDLGLEDSGPPPVPKETVDSFLDLARNLFPSNLVVAAFRTYATDYKVVTQNSSSGNVTHEKIPIGTEIEGMNILGLVLFALVLGVALKKLGSEGEDLIRFFNSLNEATMVLVSWIMWYVPVGIMFLVGSKIVEMKDIIVLVTSLGKYIFASILGHVIHGGIVLPLIYFVFTRKNPFRFLLGLLAPFATAFATCSSSATLPSMMKCIEENNGVDKRISRFILPIGATVNMDGAAIFQCVAAVFIAQLNNVELNAGQIFTILVTATASSVGAAGVPAGGVLTIAIILEAIGLPTHDLPLILAVDWIVDRTTTVVNVEGDALGAGILHHLNQKATKKGEQELAEVKVEAIPNCKSEEETSPLVTHQNPAGPVASAPELESKESVL", "notes": "expressed in transfected cells; host or cells: Xenopus laevis oocytes injected with in vitro transcribed RNA (pOTV vector)"}, "B2": {"name": "human EAAT1 excitatory amino acid transporter (Homo sapiens) (protein)", "chain": "MTKSNGEEPKMGGRMERFQQGVRKRTLLAKKKVQNITKEDVKSYLFRNAFVLLTVTAVIVGTILGFTLRPYRMSYREVKYFSFPGELLMRMLQMLVLPLIISSLVTGMAALDSKASGKMGMRAVVYYMTTTIIAVVIGIIIVIIIHPGKGTKENMHREGKIVRVTAADAFLDLIRNMFPPNLVEACFKQFKTNYEKRSFKVPIQANETLVGAVINNVSEAMETLTRITEELVPVPGSVNGVNALGLVVFSMCFGFVIGNMKEQGQALREFFDSLNEAIMRLVAVIMWYAPVGILFLIAGKIVEMEDMGVIGGQLAMYTVTVIVGLLIHAVIVLPLLYFLVTRKNPWVFIGGLLQALITALGTSSSSATLPITFKCLEENNGVDKRVTRFVLPVGATINMDGTALYEALAAIFIAQVNNFELNFGQIITISITATAASIGAAGIPQAGLVTMVIVLTSVGLPTDDITLIIAVDWFLDRLRTTTNVLGDSLGAGIVEHLSRHELKNRDVEMGNSVIEENEMKKPYQLIAQDNETEKPIDSETKM"}}, "key": {"[1]": {"molecular_target": "T1, human ASCT1 neutral amino acid transporter (Homo sapiens, UniProt P43007)", "T1 construct": "expressed in transfected cells; host or cells: Xenopus laevis oocytes injected with in vitro transcribed RNA (pOTV vector)", "T1 sequence (P43007 1-532)": "B1 chain", "test": "radiolabeled amino acid uptake in ASCT1 RNA-injected Xenopus oocytes", "type": "cell-based", "conditions": "Amino Acid (1 mM); n = 5", "source_text": "(§1) Following the PCR, the product of the amplification reaction was purified using standard techniques (Saiki et al., 1988, Science 239: 487-491). The DNA then digested with the restriction enzymes KpnI and XbaI and then cloned into the polylinker of an oocyte transcription vector (POTV; see Wang el al., 1991, Nature 352: 729-731) that had been digested with KpnI and XbaI. Synthetic RNA was then transcribed in vitro from this clone using the method of Kavanaugh et al. (1992, J. Biol. Chem. 267: 22007-22009) employing bacteriophage T7 RNA polymerase (New England Biolabs, Beverly, Mass.). 20-50 nL of ASCT1 RNA (at a concentration of about 400 μg/mL) was injected into defolliculated stage V-VI Xenopus oocytes excised from female Xenopus laevis anesthetized by immersion in 3-aminobenzoic acid for 60 min. Excised oocytes were treated with collagenase II (Sigma Chemical Co., St. Louis, Mo.) in calcium-free Barth's saline solution [comprising 88 mM NaCl, 1 mM KCl, 2.4 mM NaHCO3, 0.82 mM MgSO4, 7.5 mM Tris-HCl (pH 7.6), 50 U/mL Nystatin (Sigma) and 0.1 mg/mL gentamycin (Sigma)] for 60 min., and then incubated overnight at 15° C. in 50% Leibowitz's L-15 media (Grand Island Biological Co. (GIBCO), Long Island, N.Y.). After overnight incubation the oocytes were mechanically defolliculated and then were injected with ASCT-1 RNA and incubated at 19° C. for 48 h (see Kim el al., 1991, Nature 352: 725-728 for further details of Xenopus oocyte preparation and microinjection).\n(§2) Amino acid transport in such oocytes was assayed using [^3H] alanine, [^3H] serine or [^35S] cysteine (obtained from New England Nuclear, Boston, Mass.). Briefly, microinjected oocytes were […] at −60 mV using a Dagan TEV-200 clamp amplifier with an Axon Instruments (Foster City, Calif.) TL-1 A/D interface controlled by pCLAMP software (Axon Instruments) (see Kavanaugh et al., 1992, J. Biol. Chem. 267: 22007-22009 for a detailed review of this methodology) and continuously superfused with ND-96 buffer (consisting of 96 mM NaCl/2 mM KCl/1.8 mM CaCl2/1 mM MgCl2/5 mM HEPES, pH 7.5). For transport measurements, this solution was changed to a solution containing varying concentrations of the radiolabeled amino acids in ND-96 buffer."}, "Water-injected Oocytes": {"tested_on": "Water-injected Oocytes", "test": "radiolabeled amino acid uptake in water-injected Xenopus oocytes", "type": "cell-based, Xenopus laevis", "conditions": "Amino Acid (1 mM); n = 5", "source_text": "as §1\nas §2, with “For transport measurements, this solution was changed to a solution containing varying concentrations of the radiolabeled amino acids in ND-96 buffer.” left out"}, "[2]": {"molecular_target": "T1, human ASCT1 neutral amino acid transporter", "test": "amino acid-induced inward current in voltage-clamped ASCT1-injected Xenopus oocytes", "type": "cell-based", "conditions": "for Imax (maximal current): L-stereoisomer, current normalized to the maximum response obtained with L-alanine, mean ± standard error; for membrane response (inward Na+ currents) of ASCT1-injected oocytes: ND-96 buffer, clamped at −60 mV", "source_text": "as §1, §2\nMore detailed analyses of ithe kinetics of amino acid influx were performed by least squares linear regression analysis of induced inward current ([I]) plotted as a function of substrate amino acid concentration ([S]), using the equation shown in the legend of Table II."}, "[3]": {"molecular_target": "human EAAT1 excitatory amino acid transporter (Homo sapiens, UniProt P43003)", "test": "electrogenic amino acid uptake in EAAT1-expressing Xenopus oocytes", "conditions": "for electrogenic uptake in EAAT1-expressing oocytes: 1000 μM", "method": "(§3) Such RNA preparations were each introduced into Xenopus oocytes as descnbed in Example 3 to enable expression therein. Amino acid uptake experiments were performed on such oocytes expressing each of the glutamate transporters, also as described in Example 3.\n(§4) These experiments were performed essentially as described for the ASCT1 transporter in Example 3."}, "neuronal cell": {"tested_on": "neuronal cell", "conditions": "cited from earlier work"}, "[4]": {"substrate": "CC(C)[C@H](N)C(=O)O", "test": "amino acid-induced inward current in voltage-clamped ASCT1-injected Xenopus oocytes", "type": "cell-based, human", "conditions": "other: L-stereoisomer; least squares fit of induced inward current vs substrate concentration; mean ± standard error, at least 5 determinations", "method": "(§5) Amino acid transport in such oocytes was assayed using [^3H] alanine, [^3H] serine or [^35S] cysteine (obtained from New England Nuclear, Boston, Mass.). Briefly, microinjected oocytes were patch-lamped at −60 mV using a Dagan TEV-200 clamp amplifier with an Axon Instruments (Foster City, Calif.) TL-1 A/D interface controlled by pCLAMP software (Axon Instruments) (see Kavanaugh et al., 1992, J. Biol. Chem. 267: 22007-22009 for a detailed review of this methodology) and continuously superfused with ND-96 buffer (consisting of 96 mM NaCl/2 mM KCl/1.8 mM CaCl2/1 mM MgCl2/5 mM HEPES, pH 7.5). For transport measurements, this solution was changed to a solution containing varying concentrations of the radiolabeled amino acids in ND-96 buffer."}, "[5]": {"substrate": "N[C@@H](CO)C(=O)O", "test": "amino acid-induced inward current in voltage-clamped ASCT1-injected Xenopus oocytes", "type": "cell-based, human", "conditions": "other: L-stereoisomer; least squares fit of induced inward current vs substrate concentration; mean ± standard error, at least 5 determinations", "method": "as §5"}, "[6]": {"substrate": "N[C@@H](CS)C(=O)O", "test": "amino acid-induced inward current in voltage-clamped ASCT1-injected Xenopus oocytes", "type": "cell-based, human", "conditions": "other: L-stereoisomer; least squares fit of induced inward current vs substrate concentration; mean ± standard error, at least 5 determinations", "method": "as §5"}, "[7]": {"substrate": "C[C@@H](O)[C@H](N)C(=O)O", "test": "cells, lysate or membranes", "conditions": "other: L-stereoisomer; least squares fit of induced inward current vs substrate concentration; mean ± standard error, at least 5 determinations"}, "[8]": {"substrate": "C[C@H](N)C(=O)O", "test": "cells, lysate or membranes", "conditions": "other: L-stereoisomer; least squares fit of induced inward current vs substrate concentration; mean ± standard error, at least 5 determinations"}, "[9]": {"substrate": "N[C@@H](CS)C(=O)O", "test": "cells, lysate or membranes", "conditions": "other: inward current vs extracellular substrate concentration", "method": "as §3, §4"}}, "note": "Read-outs that look alike come from different tables or passages of the source.", "data": [{"molecule": "N[C@@H](CS)C(=O)O", "note": "[L-cysteine]", "values": [{"measurement": "rate of radiolabeled amino acid uptake, ASCT1 RNA-injected Oocytes", "setting": "[1]", "result": "19.2 ± 5.9", "unit": "pmol/min per oocyte"}, {"measurement": "rate of radiolabeled amino acid uptake, Water-injected Oocytes", "setting": "Water-injected Oocytes", "result": "1.0 ± 0.3", "unit": "pmol/min per oocyte"}, {"measurement": "Imax (maximal current)", "setting": "[2]", "result": "1.0 ± 0.04"}, {"measurement": "membrane response (inward Na+ currents) of ASCT1-injected oocytes", "setting": "[2]", "result": "hyperpolarization of the cell plasma membrane was produced"}, {"measurement": "electrogenic uptake in EAAT1-expressing oocytes", "setting": "[3]", "result": "capable of being electrogenically transported"}]}, {"molecule": "C[C@H](N)C(=O)O", "note": "[L-alanine]", "values": [{"measurement": "rate of radiolabeled amino acid uptake, ASCT1 RNA-injected Oocytes", "setting": "[1]", "result": "18 ± 2", "unit": "pmol/min per oocyte"}, {"measurement": "rate of radiolabeled amino acid uptake, Water-injected Oocytes", "setting": "Water-injected Oocytes", "result": "0.6 ± 0.1", "unit": "pmol/min per oocyte"}, {"measurement": "Imax (maximal current)", "setting": "[2]", "result": "(1.0)"}, {"measurement": "membrane response (inward Na+ currents) of ASCT1-injected oocytes", "setting": "[2]", "result": "hyperpolarization of the cell plasma membrane was produced"}, {"measurement": "electrogenic uptake in EAAT1-expressing oocytes", "setting": "[3]", "result": "did not result in electrogenic uptake"}]}, {"molecule": "N[C@@H](CO)C(=O)O", "note": "[L-serine]", "values": [{"measurement": "rate of radiolabeled amino acid uptake, ASCT1 RNA-injected Oocytes", "setting": "[1]", "result": "20 ± 5.1", "unit": "pmol/min per oocyte"}, {"measurement": "rate of radiolabeled amino acid uptake, Water-injected Oocytes", "setting": "Water-injected Oocytes", "result": "0.4 ± 0.1", "unit": "pmol/min per oocyte"}, {"measurement": "Imax (maximal current)", "setting": "[2]", "result": "1.2 ± 0.08"}, {"measurement": "membrane response (inward Na+ currents) of ASCT1-injected oocytes", "setting": "[2]", "result": "hyperpolarization of the cell plasma membrane was produced"}, {"measurement": "electrogenic uptake in EAAT1-expressing oocytes", "setting": "[3]", "result": "did not result in electrogenic uptake"}]}, {"molecule": "N[C@@H](CCC(=O)O)C(=O)O", "note": "[L-glutamate]", "values": [{"measurement": "extracellular concentration causing neuronal cell death", "setting": "neuronal cell; Bouvier et al., 1992, Nicholls & Attwell", "result": "> 300", "unit": "µM"}, {"measurement": "extracellular concentration causing neuronal cell death", "setting": "neuronal cell; for 5 min., Choi et al., 1987", "result": "> 5", "unit": "µM"}, {"measurement": "inward electric current in EAAT1-expressing oocytes (stereospecificity)", "setting": "[3]", "result": "did not result in the generation of an inward electric current"}, {"measurement": "inward current in EAAT1-expressing oocytes", "setting": "[3]; 100 μM in ND-96", "result": "inward currents as high as several microamps"}, {"measurement": "Km", "setting": "[3]; inward current vs extracellular substrate concentration", "result": 54, "unit": "µM"}]}, {"molecule": "B1", "values": [{"measurement": "Km", "setting": "[4]", "result": "390 ± 8", "unit": "µM"}, {"measurement": "Km", "setting": "[5]", "result": "88 ± 11", "unit": "µM"}, {"measurement": "Km", "setting": "[6]", "result": "29 ± 6", "unit": "µM"}, {"measurement": "Km", "setting": "[7]", "result": "137 ± 19", "unit": "µM"}, {"measurement": "Km", "setting": "[8]", "result": "71 ± 14", "unit": "µM"}]}, {"molecule": "B2", "values": [{"measurement": "Km", "setting": "[9]", "result": 300, "unit": "µM"}]}]}
